Test results as given in PMC6946680, “Modulation of brain cation-Cl^− cotransport via the SPAK kinase inhibitor ZT-1a” (Nature Communications, 2020).

Legend:
Assay in all cases: Kinase profiling panel
Assay type in all cases: biochemical
MINK1 = tested on: MINK1
Protocol: (§1) Supplementary Table 2. ZT-1a kinase profiling data6.
(§2) ZT-1a was tested at 10 and 1 µM against a panel of 140 recombinant kinases in an enzymatic
(§3) activity-based assay performed by the International Centre for Kinase Profiling in the MRC
(§4) Protein Phosphorylation and Ubiquitylation Unit. Values represent % residual kinase activity

MARK2 = tested on: MARK2
Protocol: as §1, §2, §3, §4

TAK1 = tested on: TAK1
Protocol: as §1, §2, §3, §4

DYRK1A = tested on: DYRK1A
Protocol: as §1, §2, §3, §4

MARK1 = tested on: MARK1
Protocol: as §1, §2, §3, §4

ROCK 2 = tested on: ROCK 2
Protocol: as §1, §2, §3, §4

CHK1 = tested on: CHK1
Protocol: as §1, §2, §3, §4

PKBa = tested on: PKBa
Protocol: as §1, §2, §3, §4

MST3 = tested on: MST3
Protocol: as §1, §2, §3, §4

PKCz = tested on: PKCz
Protocol: as §1, §2, §3, §4

HIPK2 = tested on: HIPK2
Protocol: as §1, §2, §3, §4

MAP4K3 = tested on: MAP4K3
Protocol: as §1, §2, §3, §4

PKBb = tested on: PKBb
Protocol: as §1, §2, §3, §4

EPH-A4 = tested on: EPH-A4
Protocol: as §1, §2, §3, §4

IRAK4 = tested on: IRAK4
Protocol: as §1, §2, §3, §4

CAMK1 = tested on: CAMK1
Protocol: as §1, §2, §3, §4

Src = tested on: Src
Protocol: as §1, §2, §3, §4

MELK = tested on: MELK
Protocol: as §1, §2, §3, §4

p38b MAPK = tested on: p38b MAPK
Protocol: as §1, §2, §3, §4

PIM3 = tested on: PIM3
Protocol: as §1, §2, §3, §4

p38g MAPK = tested on: p38g MAPK
Protocol: as §1, §2, §3, §4

ULK2 = tested on: ULK2
Protocol: as §1, §2, §3, §4

SIK2 = tested on: SIK2
Protocol: as §1, §2, §3, §4

ZAP70 = tested on: ZAP70
Protocol: as §1, §2, §3, §4

ERK1 = tested on: ERK1
Protocol: as §1, §2, §3, §4

OSR1 = tested on: OSR1
Protocol: as §1, §2, §3, §4

MNK2 = tested on: MNK2
Protocol: as §1, §2, §3, §4

MNK1 = tested on: MNK1
Protocol: as §1, §2, §3, §4

MAP4K5 = tested on: MAP4K5
Protocol: as §1, §2, §3, §4

MARK3 = tested on: MARK3
Protocol: as §1, §2, §3, §4

ERK8 = tested on: ERK8
Protocol: as §1, §2, §3, §4

TTBK1 = tested on: TTBK1
Protocol: as §1, §2, §3, §4

PAK4 = tested on: PAK4
Protocol: as §1, §2, §3, §4

SYK = tested on: SYK
Protocol: as §1, §2, §3, §4

CK1γ2 = tested on: CK1γ2
Protocol: as §1, §2, §3, §4

ERK5 = tested on: ERK5
Protocol: as §1, §2, §3, §4

TTBK2 = tested on: TTBK2
Protocol: as §1, §2, §3, §4

p38a MAPK = tested on: p38a MAPK
Protocol: as §1, §2, §3, §4

VEG-FR = tested on: VEG-FR
Protocol: as §1, §2, §3, §4

TrkA = tested on: TrkA
Protocol: as §1, §2, §3, §4

IRAK1 = tested on: IRAK1
Protocol: as §1, §2, §3, §4

MST4 = tested on: MST4
Protocol: as §1, §2, §3, §4

JAK2 = tested on: JAK2
Protocol: as §1, §2, §3, §4

DYRK3 = tested on: DYRK3
Protocol: as §1, §2, §3, §4

Cc1cc(C(C#N)c2ccc(Cl)cc2)c(Cl)cc1NC(=O)c1cc(Cl)ccc1O (stereo not shown) [ZT-1a, 5-chloro-N-(5-chloro-4-((4-chlorophenyl)(cyano)methyl)-2-methylphenyl)-2-hydroxybenzamide]
% residual kinase activity (MINK1; 1 µM): 107±5%
% residual kinase activity (MINK1; 10 µM): 108±6%
% residual kinase activity (MARK2; 1 µM): 103±8%
% residual kinase activity (MARK2; 10 µM): 89±15%
% residual kinase activity (TAK1; 1 µM): 117±22%
% residual kinase activity (TAK1; 10 µM): 103±5%
% residual kinase activity (DYRK1A; 1 µM): 119±7%
% residual kinase activity (DYRK1A; 10 µM): 103±1%
% residual kinase activity (MARK1; 1 µM): 104±16%
% residual kinase activity (MARK1; 10 µM): 91±5%
% residual kinase activity (ROCK 2; 1 µM): 109±6%
% residual kinase activity (ROCK 2; 10 µM): 101±10%
% residual kinase activity (CHK1; 1 µM): 111±11%
% residual kinase activity (CHK1; 10 µM): 109±8%
% residual kinase activity (PKBa; 1 µM): 104±1%
% residual kinase activity (PKBa; 10 µM): 91±4%
% residual kinase activity (MST3; 1 µM): 109±8%
% residual kinase activity (MST3; 10 µM): 113±15%
% residual kinase activity (PKCz; 1 µM): 80±11%
% residual kinase activity (PKCz; 10 µM): 122±28%
% residual kinase activity (HIPK2; 1 µM): 90±14%
% residual kinase activity (HIPK2; 10 µM): 91±4%
% residual kinase activity (MAP4K3; 1 µM): 134±5%
% residual kinase activity (MAP4K3; 10 µM): 88±2%
% residual kinase activity (PKBb; 1 µM): 76±14%
% residual kinase activity (PKBb; 10 µM): 51±13%
% residual kinase activity (EPH-A4; 1 µM): 59±33%
% residual kinase activity (EPH-A4; 10 µM): 90±11%
% residual kinase activity (IRAK4; 1 µM): 127±0%
% residual kinase activity (IRAK4; 10 µM): 127±11%
% residual kinase activity (CAMK1; 1 µM): 60±5%
% residual kinase activity (CAMK1; 10 µM): 71±31%
% residual kinase activity (Src; 1 µM): 107±4%
% residual kinase activity (Src; 10 µM): 84±13%
% residual kinase activity (MELK; 1 µM): 130±34%
% residual kinase activity (MELK; 10 µM): 63±3%
% residual kinase activity (p38b MAPK; 1 µM): 124±1%
% residual kinase activity (p38b MAPK; 10 µM): 124±0%
% residual kinase activity (PIM3; 1 µM): 115±12%
% residual kinase activity (PIM3; 10 µM): 99±2%
% residual kinase activity (p38g MAPK; 1 µM): 100±11%
% residual kinase activity (p38g MAPK; 10 µM): 100±6%
% residual kinase activity (ULK2; 1 µM): 110±11%
% residual kinase activity (ULK2; 10 µM): 49±9%
% residual kinase activity (SIK2; 1 µM): 105±16%
% residual kinase activity (SIK2; 10 µM): 76±8%
% residual kinase activity (ZAP70; 1 µM): 120±1%
% residual kinase activity (ZAP70; 10 µM): 97±9%
% residual kinase activity (ERK1; 1 µM): 107±16%
% residual kinase activity (ERK1; 10 µM): 109±18%
% residual kinase activity (OSR1; 1 µM): 106±9%
% residual kinase activity (OSR1; 10 µM): 98±3%
% residual kinase activity (MNK2; 1 µM): 100±7%
% residual kinase activity (MNK2; 10 µM): 105±3%
% residual kinase activity (MNK1; 1 µM): 78±19%
% residual kinase activity (MNK1; 10 µM): 87±2%
% residual kinase activity (MAP4K5; 1 µM): 95±28%
% residual kinase activity (MAP4K5; 10 µM): 76±9%
% residual kinase activity (MARK3; 1 µM): 71±6%
% residual kinase activity (MARK3; 10 µM): 68±8%
% residual kinase activity (ERK8; 1 µM): 104±11%
% residual kinase activity (ERK8; 10 µM): 63±3%
% residual kinase activity (TTBK1; 1 µM): 119±5%
% residual kinase activity (TTBK1; 10 µM): 102±2%
% residual kinase activity (PAK4; 1 µM): 81±16%
% residual kinase activity (PAK4; 10 µM): 51±3%
% residual kinase activity (SYK; 1 µM): 93±12%
% residual kinase activity (SYK; 10 µM): 93±1%
% residual kinase activity (CK1γ2; 1 µM): 112±12%
% residual kinase activity (CK1γ2; 10 µM): 124±23%
% residual kinase activity (ERK5; 1 µM): 120±9%
% residual kinase activity (ERK5; 10 µM): 114±5%
% residual kinase activity (TTBK2; 1 µM): 101±32%
% residual kinase activity (TTBK2; 10 µM): 98±34%
% residual kinase activity (p38a MAPK; 1 µM): 128±7%
% residual kinase activity (p38a MAPK; 10 µM): 113±2%
% residual kinase activity (VEG-FR; 1 µM): 113±10%
% residual kinase activity (VEG-FR; 10 µM): 88±28%
% residual kinase activity (TrkA; 1 µM): 108±9%
% residual kinase activity (TrkA; 10 µM): 91±7%
% residual kinase activity (IRAK1; 1 µM): 128±2%
% residual kinase activity (IRAK1; 10 µM): 95±7%
% residual kinase activity (MST4; 1 µM): 63±10%
% residual kinase activity (MST4; 10 µM): 63±0%
% residual kinase activity (JAK2; 1 µM): 125±6%
% residual kinase activity (JAK2; 10 µM): 123±8%
% residual kinase activity (DYRK3; 1 µM): 113±6%
% residual kinase activity (DYRK3; 10 µM): 56±15%
